Laboratory results from article PMC10779222, “Copper(II) Complexes with 1-(Isoquinolin-3-yl)heteroalkyl-2-ones: Synthesis, Structure and Evaluation of Anticancer, Antimicrobial and Antioxidant Potential” (International Journal of Molecular Sciences, 2023).

Tests used:
[1] = tested on: CCD-1059Sk (human normal skin fibroblasts); experiment: MTT cytotoxicity assay on non-cancerous fibroblasts; format: cell-based; conditions: 24 h incubation, non-cancerous cells
Description: (§1) Cytotoxic activity of the investigated compounds was evaluated against T98G (glioblastoma), HepG2 (hepatoma), LS-180 (colon cancer) and A375 (melanoma) cell lines. Human normal skin fibroblasts, CCD-1059Sk (CRL-2072), were used as reference (non-cancerous) cells. All of the cell lines were obtained from American Type Culture Collection (ATCC; Manassas, VA, USA). A375, T98G and CCD-1059Sk cells were cultured in Dulbecco’s Modified Eagle’s Medium (DMEM) (Sigma Aldrich, St. Louis, MO, USA) supplemented with 10% FBS, penicillin (100 U/mL) and streptomycin (100 μg/mL). LS-180 and HepG2 cells were cultured in Eagle’s Minimum Essential Medium supplemented with 10% FBS, penicillin (100 U/mL) and streptomycin (100 μg/mL). All of the cells were maintained at 37 °C in a humidified atmosphere of 5% CO2. The compounds were dissolved in DMSO in order to obtain stock solutions. At the day of the experiment, the suspension of cells (1 × 10^5 cells/mL) was distributed onto 96-well plates at a volume of 100 μL/well. After attachment, the cells were treated with the increased concentrations of the tested compounds in medium containing 2% FBS and incubated for 24 h. Then, the medium was removed from wells, and cells were rinsed with PBS. Afterwards, 15 μL of MTT working solution (5 mg/mL in PBS) was added to each well, and the plates were incubated for 3 h. Subsequently, 100 μL of 10% SDS solution was added to each well in order to dissolve the precipitated formazan crystals. After overnight incubation at 37 °C, the absorbance of the obtained solution was measured at λ = 570 nm using a microplate reader (Epoch, BioTek Instruments, Inc., Winooski, VT, USA). At least two independent experiments were performed in triplicate. […] IC50 values of the investigated derivatives and positive control (etoposide) were calculated using the IC50 online calculator [101].

[2] = tested on: A375, HepG2, LS-180, T98G and CCD-1059Sk cell lines; experiment: MTT cytotoxicity assay, summary statements over several cell lines; format: cell-based; conditions: range over HepG2 and T98G
Description: as §1

LS-180 (colon cancer) = experiment: MTT cytotoxicity assay on LS-180 cells; format: cell-based, human; conditions: 24 h incubation
Description: as §1

T98G (glioblastoma) = experiment: MTT cytotoxicity assay on T98G cells; format: cell-based
Description: as §1

[3] = DPPH radical scavenging assay; conditions: ±SD; 30 min, room temperature
Description: The DPPH radical scavenging assay of samples was performed with ascorbic acid as a positive control. Briefly, 100 μL of different concentrations of the complexes, dissolved in DMSO, was mixed with 100 μL of 0.06 mM DPPH methanolic solution and incubated at room temperature in the dark for 30 min. The change in absorbance at λ = 517 nm was analyzed with the use of a 96-well microplate reader (Epoch, BioTek System, Winooski, VT, USA). The control was composed of DPPH and DMSO. DPPH inhibition was calculated according to the following equation:DPPH Inhibition (%) = [(Acontrol − Asample)/Acontrol] × 100% The radical scavenging activity of the samples was shown as the IC50 value (the concentration of the analyzed samples that caused a decrease in the non-reduced form of the DPPH radical by 50%).

T98G cells = experiment: Cell cycle analysis (image cytometry, DAPI) in T98G; format: cell-based, human; conditions: 24 h, C2 at IC50 concentration
Description: (§2) Cell cycle analysis of T98G and HepG2 cells pretreated with copper(II) complex C2 (CX) (at IC50 concentration) was performed on NucleoCounter NC-3000 Image Cytometer (ChemoMetec, Lillerod, Denmark). The investigated cells were seeded on 6-well culture plates (Corning Inc., New York, NY, USA) at the density of 1 × 10^5 cells/mL and cultured in the respective medium at 37 °C in a humidified atmosphere of 5% CO2. When the cells reached approximately 80% confluence, they were treated with C2 (CX), at a concentration of IC50, for 24 h. Subsequently, the cells were detached with trypsine, suspended in 250 μL of lysis buffer (Solution 10) supplemented with DAPI (10 μg/mL) and incubated for 5 min at 37 °C. Following this, stabilization buffer (Solution 11) was added, and the obtained cell suspension was applied on NC-slide and analyzed using NucleoCounter NC-3000 Image Cytometer equipped with NucleoView NC-3000^TM software (ChemoMetec A/S, Lillerod, Denmark). Experiments were repeated three times, and the measurements in each experiment were run in duplicate.

HepG2 (hepatoma) = experiment: MTT cytotoxicity assay on HepG2 cells; format: cell-based, human
Description: as §1

[4] = ABTS radical scavenging assay; conditions: ±SD; 10 min, 30 °C
Description: The ABTS radical scavenging assay of samples (ligands or complexes) was performed with ascorbic acid as a positive control. Briefly, 30 μL of different concentrations of the samples, dissolved in DMSO, was mixed with 170 μL of ABTS solution (2 mM ABTS diammonium salt, 3.5 mM potassium persulfate) and completed with water to a final volume of 300 μL. ABTS solution with DMSO was used as a control. […] ABTS inhibition was calculated according to the following equation:ABTS Inhibition (%) = [(Acontrol − Asample)/Acontrol] × 100% The radical scavenging activity of the samples was shown as the IC50 value (the concentration of the analyzed samples that caused a decrease in the non-reduced form of the ABTS radical by 50%).

HepG2 cells = experiment: Cell cycle analysis (image cytometry, DAPI) in HepG2; format: cell-based, human; conditions: C2 at IC50 concentration
Description: as §2

O=C1NCCN1c1cc2ccccc2cn1.O=C1NCCN1c1cc2ccccc2cn1.[Cl][Cu][Cl] [C2, Dichloro{bis[1-(Isoquinolin-3-yl)imidazolidin-2-one]}copper(II)]
IC50 ± SD, CCD-1059-Sk [1]: 21.86 ± 1.03 µg/mL | IC50, HepG2 and T98G [2]: 5.04 to 6.97 µg/mL | IC50 ± SD, LS180 (LS-180 (colon cancer)): 5.88 ± 0.40 µg/mL | highest concentration that did not affect the viability of T98G cells (T98G (glioblastoma); MTT assay): 0.25 µg/mL | IC50 ± SD, T98G (T98G (glioblastoma); MTT, 24 h incubation): 6.97 ± 0.52 µg/mL | selectivity index (SI), T98G (T98G (glioblastoma); T98G compared with CCD-1059-Sk): 3.14 | IC50 DPPH [3]: 401.52 ± 2.48 µg/mL | effect on cell cycle progression, T98G (T98G cells): cell cycle arrest in the G2/M phase | selectivity index (SI), HepG2 (HepG2 (hepatoma); HepG2 compared with CCD-1059-Sk): 4.33 | highest concentration that did not affect the viability of HepG2 cells (HepG2 (hepatoma); MTT assay): 0.25 µg/mL | IC50 ± SD, HepG2 (HepG2 (hepatoma); MTT, 24 h incubation): 5.04 ± 0.42 µg/mL | IC50 ABTS [4]: 107.14 ± 1.42 µg/mL | effect on cell cycle progression, HepG2 (HepG2 cells; 24 h): cell cycle arrest in the sub-G1 phase | DNA content in the sub-G1 phase (HepG2 cells; HepG2, 24 h, control cells 10%, p < 0.0001): 29%
